We go through 2 compounds from patent publication US20130203647A1, “DELIVERY OF H[…]” (UNIVERSITY COLLEGE LONDON, priority 2010, published 2013).

Series [1] can be described thus: Pharmacokinetics: brain levels after intravenous administration (UPLC-MS/MS). The class given is in vivo. As to conditions: ICR (CD-1) mice, dalargin dose of 30 mg kg-1, FIG. 1. As to the method: (§1) ICR (CD-1) male out bred mice (18-24 g, 4 weeks old, Harlan, Oxon, UK) were used for the pharmacokinetics evaluations while ICR (CD-1) male out bred mice (22-28 g, 4-5 weeks old) were used for the pharmacodynamics evaluations. The animals were housed in groups of 5 in plastic cages in controlled laboratory conditions with ambient temperature and humidity maintained at ˜22° C. and 60% respectively with a 12-hour light and dark cycle (lights on at 7:00 and off at 19:00). Food and water were available ad libitum and the animals acclimatised for 5-7 days prior to any experiments in the Animal House, School of Pharmacy, University of London (London, UK). Animals were only used once and were acclimatised in the testing environment for at least 1 hour prior to testing. […]
Groups (n=5) of animals were administered either: NaCl (0.9% w/v), Dalargin, Dalargin-GCPQA, pDal and pDal-GCPQA. […] At various time points, animals were killed and their brain, liver and plasma analysed. […]
Brain and Liver were immediately frozen in liquid Nitrogen after being taken from the mouse. […] The brain and liver weights were determined and 2 mL water per g of brain was added to each (equivalent to 2 g of solvent to 1 g of brain). […]

A further series deals with mice. Put plainly: Tail flick warm water bioassay (anti-nociception). The class given is in vivo. As to conditions: ICR (CD-1) mice, intravenous, dalargin dose of 15 mg kg-1, water at 55° C., FIG. 2. The protocol: as §1, with “UK).” for “UK). Animals were only used once and were acclimatised in the testing environment for at least 1 hour prior to testing.”
Anti-nociception was assessed in mice using the tail flick warm water bioassay (17, 18). […] The response latency times, in centiseconds, recorded for each mouse to withdraw its tail by a “sharp flick” were recorded using a digital stopwatch capable of measuring 1/100th of a second. […]
Two separate withdrawal latency determinations (separated by ≧20 sec) were averaged. […] Mice not responding within 5 sec were excluded from further testing (Baseline cut-off=5 seconds) and the baseline latency was measured for all mice 2 hours prior testing. […] Briefly, percent antinociception was calculated as 100%×(test latency-baseline latency)/(10 seconds-baseline latency). […]

Non-standard residues stand in square brackets, D forms with d. Residues, ends and D or L forms follow the SMILES beside them. ξ: configuration not given here. *: point of attachment. Palmitoyl = CCCCCCCCCCCCCCCC(=O)*; ξY = NC(Cc1ccc(O)cc1)C(=O)O; ξR = N=C(N)NCCCC(N)C(=O)O; ξF = NC(Cc1ccccc1)C(=O)O; ξL = CC(C)CC(N)C(=O)O

On to `CCCCCCCCCCCCCCCC(=O)Oc1ccc(CC(N)C(=O)N[C@H](C)C(=O)NCC(=O)NC(Cc2ccccc2)C(=O)NC(CC(C)C)C(=O)NC(CCCNC(=N)N)C(=O)O)cc1` (stereo partly drawn) [pDal, Palmitoyl Dalargin] (H-[ξY](Palmitoyl)[dA]G[ξF][ξL][ξR]-OH), for which the “Detection in the brain (brain levels)” value in series [1] is “detected in the brain”.

Turning to Dalargin, the “Antinociceptive effect (% of Maximum Possible Effect, tail flick)” value in the series with mice is “unable to exert an antinociceptive effect”. Further, the “Detection in the brain (brain levels)” value in series [1] is “not detected in the brain”.
